Experimental data: publication PMC5107132 (European journal of pharmacology, 2016)

What was measured:
Wistar rats [1] = conditions: ref Savić et al., 2008; cited from earlier work
α3β3γ2 GABAA receptors [2] = biological target: T1, α3β3γ2 GABAA receptors (Rattus norvegicus, UniProt P18508+P20236); conditions: 100 nM; ref Savić et al., 2010; cited from earlier work
α1β3γ2S GABAA receptors = α1β3γ2S GABAA receptors (Rattus norvegicus, UniProt P18508+P62813); conditions: read-out: Ki at α1β3γ2 GABAA receptors; ref Savić et al., 2010; cited from earlier work
α2β3γ2 GABAA receptors [3] = biological target: T2, α2β3γ2 GABAA receptors (Rattus norvegicus, UniProt P18508+P23576); experiment: Two-electrode voltage clamp in Xenopus oocytes, α2β3γ2; type: cell-based; conditions: 200 mg/kg dose
α1β3γ2 GABAA receptors = α1β3γ2 GABAA receptors (Rattus norvegicus, UniProt P18508+P62813); conditions: 100 nM; ref Savić et al., 2010; cited from earlier work
κ opioid receptor (KOR) = κ opioid receptor (KOR) (Homo sapiens, UniProt P41145); conditions: read-out: Affinity at KOR; ref B. Roth et al., NIMH Psychoactive Drug Screening Program; cited from earlier work
[4] = Pharmacokinetic study, plasma and brain concentrations after i.p. injection; conditions: rat, 20 min
[5] = In vitro hydrolytic stability study in rat plasma; type: in vitro ADME; conditions: for % remaining in plasma (in vitro metabolic stability) / Total plasma concentration (in vitro metabolic stability): rat plasma 37 °C
[6] = Plasma protein and brain tissue binding; type: in vitro ADME, rat; conditions: rapid equilibrium dialysis
α5β3γ2S GABAA receptors [7] = biological target: T3, α5β3γ2S GABAA receptors (Rattus norvegicus, UniProt P18508+P19969); conditions: read-out: Ki at α5β3γ2 GABAA receptors; ref Savić et al., 2010; cited from earlier work
α5β3γ2 GABAA receptors [8] = biological target: T4, α5β3γ2 GABAA receptors (Rattus norvegicus, UniProt P18508+P19969); experiment: Two-electrode voltage clamp in Xenopus oocytes, α5β3γ2; type: cell-based
α3β3γ2 GABAA receptors [9] = biological target: T1, α3β3γ2 GABAA receptors; experiment: Two-electrode voltage clamp in Xenopus oocytes, α3β3γ2; type: cell-based; conditions: 200 mg/kg dose
α2β3γ2S GABAA receptors = α2β3γ2S GABAA receptors (Rattus norvegicus, UniProt P18508+P23576); conditions: read-out: Ki at α2β3γ2 GABAA receptors; ref Savić et al., 2010; cited from earlier work
α5β3γ2S GABAA receptors [10] = biological target: T3, α5β3γ2S GABAA receptors; experiment: 3H-flunitrazepam competition binding, α5β3γ2S; conditions: ratio of Ki values
Wistar rats [11] = experiment: Rotarod test; type: in vivo, rat; conditions: 200 mg/kg i.p.; vs. 180 s with control animals; n = 4
α5β3γ2 GABAA receptors [12] = biological target: T4, α5β3γ2 GABAA receptors; conditions: 100 nM; ref Savić et al., 2010; cited from earlier work
α3β3γ2S GABAA receptors = α3β3γ2S GABAA receptors (Rattus norvegicus, UniProt P18508+P20236); conditions: read-out: Ki at α3β3γ2 GABAA receptors; ref Savić et al., 2010; cited from earlier work
α2β3γ2 GABAA receptors [13] = biological target: T2, α2β3γ2 GABAA receptors; conditions: 100 nM; ref Savić et al., 2010; cited from earlier work

## C#Cc1ccc2c(c1)C(c1ccccc1F)=N[C@@H](C)c1c(C(=O)OCC)ncn1-2 [SH-053-2′F-S-CH3]
Wistar rats [1]
  Median incapacitating dose (rotarod): 219 mg/kg

## C#Cc1ccc2c(c1)C(c1ccccc1F)=N[C@H](C)c1c(C(=O)OCC)ncn1-2 [SH-053-2′F-R-CH3]
α3β3γ2 GABAA receptors [2]
  % of control current, α3β3γ2: 125 ± 8%
α1β3γ2S GABAA receptors
  Ki: 759 nM
α2β3γ2 GABAA receptors [3]
  Estimated potentiation at α2GABAARs: 171%
α1β3γ2 GABAA receptors
  % of control current, α1β3γ2: 111 ± 2%
κ opioid receptor (KOR)
  Ki: 240 nM
[4]; 10 mg/kg i.p.
  Brain free (estimated) concentration: 29.10 ± 5.14 nmol/kg
  Brain total concentration: 752.00 ± 132.84 nmol/kg
  Plasma free (estimated) concentration: 278.60 ± 52.39 nmol/L
  Plasma total concentration: 406.43 ± 76.45 nmol/L
[4]; 20 mg/kg i.p.
  Brain free (estimated) concentration: 38.85 ± 3.39 nmol/kg
  Brain total concentration: 1003.57 ± 87.55 nmol/kg
  Plasma free (estimated) concentration: 288.32 ± 47.99 nmol/L
  Plasma total concentration: 420.63 ± 70.01 nmol/L
[4]; 30 mg/kg i.p.
  Brain free (estimated) concentration: 64.40 ± 14.64 nmol/kg
  Brain total concentration: 1663.84 ± 378.29 nmol/kg
  Plasma free (estimated) concentration: 380.78 ± 46.73 nmol/L
  Plasma total concentration: 555.51 ± 68.18 nmol/L
[4]; 150 mg/kg i.p.
  Brain free (estimated) concentration: 147.74 ± 37.36 nmol/kg
  Brain total concentration: 3816.79 ± 965.21 nmol/kg
  Plasma free (estimated) concentration: 1100.14 ± 186.36 nmol/L
  Plasma total concentration: 1604.96 ± 271.88 nmol/L
[4]; 200 mg/kg i.p.
  Brain free (estimated) concentration: 324.16 ± 89.88 nmol/kg
  Brain total concentration: 8374.25 ± 2322.03 nmol/kg
  Plasma free (estimated) concentration: 1876.71 ± 196.63 nmol/L
  Plasma total concentration: 2737.87 ± 286.86 nmol/L
[5]; 0 min
  % remaining in plasma (in vitro metabolic stability): 100%
  Total plasma concentration (in vitro metabolic stability): 0.5556 µM
[5]; 30 min
  % remaining in plasma (in vitro metabolic stability): 76.64%
  Total plasma concentration (in vitro metabolic stability): 0.4258 ± 0.0042 µM
[5]; 60 min
  % remaining in plasma (in vitro metabolic stability): 62.77%
  Total plasma concentration (in vitro metabolic stability): 0.3487 ± 0.0040 µM
[5]; 120 min
  % remaining in plasma (in vitro metabolic stability): 38.27%
  Total plasma concentration (in vitro metabolic stability): 0.2126 ± 0.0036 µM
[5]; 240 min
  % remaining in plasma (in vitro metabolic stability): 5.24%
  Total plasma concentration (in vitro metabolic stability): 0.0291 ± 0.0023 µM
[5]; rat, plasma
  In vitro metabolic stability during incubation in rat plasma: less stable
[6]; rat brain tissue
  Free fraction in brain tissue: 3.87%
[6]; rat plasma
  Free fraction in plasma: 68.55%
α5β3γ2S GABAA receptors [7]
  Ki: 95.2 nM
α5β3γ2 GABAA receptors [8]; approximated from estimated free rat brain concentration, 200 mg/kg i.p.
  Estimated potentiation of GABA-mediated currents at α5GABAARs: 280%
α5β3γ2 GABAA receptors [8]; read from concentration-response curves of Savić et al., 2010
  Concentration needed to elicit 300% potentiation at α5GABAARs: above 300 nM
α3β3γ2 GABAA receptors [9]
  Estimated potentiation at α3GABAARs: 155%
α2β3γ2S GABAA receptors
  Ki: 948 nM
α5β3γ2S GABAA receptors [10]
  Selectivity in binding to α5GABAARs compared to α1-containing GABAA receptors: 8 fold
  Selectivity in binding to α5GABAARs compared to α2-containing GABAA receptors: 10 fold
Wistar rats [11]
  Rotarod, time remaining on the rod: 154 ± 26 s
α5β3γ2 GABAA receptors [12]
  % of control current, α5β3γ2: 183 ± 7%
α3β3γ2S GABAA receptors
  Ki: 769 nM
α2β3γ2 GABAA receptors [13]
  % of control current, α2β3γ2: 124 ± 9%
